# Literature values, collected in patent US20250161231A1, “LUTEIN FOR USE IN INHIBITING MAST CELL DEGRANULATION” (N.V. NUTRICIA, priority 2022, published 2025).
# System: human mast cells
# Conditions: literature, Int Arch Allergy Immunol 113, 335-336, 1997
smiles,measurement,value
CC1=C(/C=C/C(C)=C/C=C/C(C)=C/C=C/C=C(C)/C=C/C=C(C)/C=C/C2=C(C)CCCC2(C)C)C(C)(C)CCC1 [beta-carotene],inhibition of histamine release from human mast cells,dose-dependent inhibition
